Patent US20120329879A1, “BETA-ADRENERGIC RECEPTOR AGONISTS AND USES THEREOF” (THE UNIVERSITY OF TENNESSEE RESEARCH FOUNDATION, priority 2010, published 2012)
Where “and” joins values, the source holds several entries; their conditions need not be identical. Equal values may be shown once. Entries after “also recorded” stand apart in the source; their conditions may differ.

Experiments:
[1] = system: Human retinal endothelial cells (HREC); assay: TNFalpha and cleaved caspase 3 ELISA in retinal endothelial cells cultured in high glucose; format: cell-based; conditions: 50 nM
Description: Human retinal endothelial cells (HREC) were purchased from Cell Systems (Kirkland, Wash.) and grown in either basal (5 mM glucose) or growth (25 mM glucose) media. Both media is supplemented with 10% FBS and antibiotics. The day prior to experiments, cells are serum-starved for 18-24 hours. Rat Müller cells (rMC-1) were grown in DMEM medium with 5 mM glucose or 25 mM glucose. Media was supplemented with 10% FBS and antibiotics. Cells were serum starved prior to all experiments for 18-24 hours.
Human retinal endothelial cells (HREC) and rat Muller cells (rMC-1) in both glucose conditions were treated with Compound 2 at doses of 10 nM, 50 nM, 100 nM, 1 μM, and 10 μM of Compound 2. Cells of each type were grown in medium containing L-glucose to control for changes in osmolarity. 10 μM isoproterenol was also used for each condition as a positive control. Müller cells were treated for 1 hour and 24 hours, while HREC were treated for 30 and 60 minutes.
Following treatment, cells were collected into lysis buffer containing protease and phosphatase inhibitors. ELISA analyses for TNFalpha, cleaved caspase 3, and PKA were done according to manufacturers instructions. Data is compared against non-treated cells and cells at the various doses. A Kruskal-Wallis test is done, with a Dunn's test for secondary analyses. […] The dose that decreases TNFalpha and caspase 3 levels also increases PKA activity.

[2] = Tissue distribution of Compound 2 in heart, lung and spleen after topical delivery; format: in vivo; conditions: rat, 24 hours after topical 10 mg/kg, single animals 1-5
[3] = system: insulin receptor beta (Tyr 1150/1151); assay: Western blot of phosphorylated to total insulin receptor beta in rat retina; format: in vivo; conditions: diabetic rats, 1 mM eye drops
Description: The other eye from each animal was used for protein analyses for inflammatory markers and insulin receptor signaling. Western blotting was done as described (9). Antibodies used were total insulin receptor beta (1:500, Cellular Signaling, Danvers, Mass.), phosphorylated insulin receptor beta (Tyr 1150/1151, 1:500, Cellular Signaling, Danvers, Mass.), total Akt (1:500, Cellular Signaling, Danvers, Mass.), and phosphorylated Akt (Ser 473, 1:500, Cellular Signaling, Danvers, Mass.). For analyses of the data, mean densitometry values were obtained using the Kodak 2.0 software. The ratio of phosphorylated protein was compared to levels of total protein.

cleaved caspase 3 = assay: Cleaved caspase 3 ELISA of retinal lysates of diabetic rats; format: in vivo, rat; conditions: Compound 2 eye drops
Description: To determine the TNF concentration (Pierce, Rockford Ill.) and levels of cleaved caspase 3 (Cellular Signaling, Danvers, Mass.), ELISA analyses were done according to manufacturers instructions, except that equal protein was loaded into the cleaved caspase 3 ELISA so the optical density numbers can be used.

[4] = Vitreous humor levels of Compound 2 after topical administration to rats; format: in vivo; conditions: rat, 10 mg/kg
Description: For data analyses B/PK parameters were derived from the obtained plasma, vitreous humor, urine and feces concentration data by standard non-compartmental analysis. Terminal half-life was determined as the ratio of ln 2 divided by λz, the negative of the slope of the linear regression of the natural log concentration vs. time profile during the terminal phase. Systemic and ocular exposure was determined as plasma or ocular area under the concentration-time curve (AUC) using the trapezoidal rule. Compound 2 concentration determination and metabolite profiling is conducted using a validated LC/MS/MS assay based on the methodology described (14-15). The LC-MS/MS system comprises a Shimadzu HPLC system (Kyoto, Japan), API-4000 Q Trap tandem mass spectrometer (Foster City, Calif., USA) equipped with a turbo ion-spray and a HTC-PAL autosampler (Leap Technologies, Carrboro, N.C., USA).

retina of diabetic rats = assay: Assessment of retinal thinning and loss of cells in ganglion cell layer; format: in vivo, rat
Description: Assessment of retinal thinning and loss of cells in ganglion cell layer Formalin-fixed paraffin sections were stained with toluidine blue for light microscopy and morphometry of retinal thickness (8). Pictures were taken at four locations in the retina (both sides of the optic nerve and mid-retina) at 400×. The nuclei in the retinal ganglion cell layer (GCL) were counted in a […] section of each picture, and the thickness of the inner retina (from the top of the inner nuclear layer to the inner limiting membrane) was assessed using a Retiga camera attached to a Nikon Biophot light microscope with Qcapture software (Qlmaging, Burbay, BC, Canada). Retinal thickness and number of cells in the ganglion cell layer were measured using OpenLab software (Improvision, Lexington, Mass.). Retinal thickness and live retinal imaging were assessed using rodent OCT. Each layer of the retina was examined multiple times on the same animal in a non-invasive way to determine changing in specific regions over the course of the experiment. […] Light microscopy was used for histological examination of neuronal changes, which often occur in the acute phases. Formalin-fixed paraffin sections were stained with toluidine blue for light microscopy and morphometry of retinal thickness. Pictures were taken at four locations in the retina (both sides of the optic nerve and mid-retina) at 400×. The nuclei in the retinal ganglion cell layer (GCL) were counted in a 100 μm section of each picture. The thickness of the inner retina from the top of the inner nuclear layer to the inner limiting membrane was assessed using a Retiga camera attached to a Nikon Biophot light microscope with Qcapture software (Qlmaging, Burbay, BC, Canada). Retinal thickness and number of cells in the retinal ganglion cell layer were measured using OpenLab software (Improvision, Lexington, Mass.). Unpaired T-tests were used to compare data from control, diabetic, and diabetic+eye drop treated animals, with P<0.05 being accepted as significant.

[5] = delayed treatment: 6 month diabetic rats, Compound 2 for 2 months
[6] = diabetic rats, 1 mM eye drops as preventative, central retina, hydrochloride

Q: What does the source list for `COc1cc(CCNC[C@H](O)c2ccc(O)c(O)c2)cc(OC)c1OC.Cl` (single isomer, unassigned) [Compound 2, 4-[1-hydroxy-2-(1-ethylamino-3-,4-,5-trimethoxyphenyl)ethyl]benzene-1,2-diol hydrochloride]?
A: reduction of TNFalpha levels versus not-treated controls ([1]; REC in 25 mM glucose): 23%; reduction of caspase 3 levels versus not-treated controls ([1]; REC in 25 mM glucose): 54%; TNFalpha levels, in words ([1]; REC in high glucose, vs non-treated): significantly reduced; cleaved caspase 3 levels, in words ([1]; REC in high glucose, vs non-treated, hydrochloride): significantly decreased caspase 3 levels; also recorded: significantly reduced levels of cleaved caspase 3; concentration in Heart [2]: <400 ng/g; concentration in Lung ([2]; hydrochloride): 463.43 ng/g and 2262.08 ng/g and 2862.22 ng/g and 2060.08 ng/g and 535.24 ng/g; concentration in Spleen ([2]; hydrochloride): 12134.03 ng/g and 8393.8 ng/g and 7061.2 ng/g and 4544.4 ng/g and 34331.0 ng/g; concentration at 24 h ([2]; heart, topical, 10 mg/kg): < 400 ng/g; insulin receptor beta tyrosine phosphorylation, 2 months ([3]; 2 months of diabetes): maintained insulin receptor beta tyrosine phosphorylation at levels similar to control animals; insulin receptor beta tyrosine phosphorylation, 8 months ([3]; 8 months of diabetes): also maintained; cleaved caspase 3 levels in retinal lysates (cleaved caspase 3): reduced following treatment; concentration in the vitreous humor within 1 hour [4]: approximately 8 ug/ml; time by which all detectable levels in the vitreous humor are gone [4]: ≤ 2 h; time of peak concentration in the vitreous humor [4]: < 1 h; increase in retinal thickness over diabetic rats alone (retina of diabetic rats; [5]): ~50%; loss of cells in the ganglion cell layer, delayed treatment (retina of diabetic rats; [5]): no loss of cells in the ganglion cell layer; inner retinal thickness (retina of diabetic rats; [6]): loss of inner retinal thickness was prevented; also recorded: maintains the retinal thickness; number of cells in the ganglion cell layer (retina of diabetic rats; [6]): prevented in the Compound 2-treated animals; also recorded: maintains the retinal thickness and cell number; loss of retinal thickness and apoptosis of cells of the ganglion cell layer (retina of diabetic rats; diabetic rats, 50 mM eye drops 1 time each day for 8 months): effective in preventing the loss of retinal thickness and apoptosis of cells of the ganglion cell layer
